Experimental data as given in the NIST ThermoML archive (doi:10.1021/acs.jced.9b00102).
“And” between values parts separate entries of the source, which are not always exact repeats. Equal entries are not always repeated. ± gives the expanded uncertainty stated by the source.

Experiments:
[1] = refractive index (Na D-line) (dimensionless); details: 293.15 K; 101.33 kPa; Liquid; Standard Abbe refractometry
[2] = Liquid, Ebulliometric method (Recirculating still)

In the case of CC(C)CO [2-methyl-1-propanol], the refractive index [1] is reported as 1.3958 ± 0.002, the “vapor or sublimation pressure” value ([2]; 303.15 K) is reported as 2.01 ± 0.22 kPa and the “vapor or sublimation pressure” value ([2]; 323.15 K) is reported as 7.11 ± 0.23 kPa. The “vapor or sublimation pressure” value ([2]; 343.15 K) was 20.47 ± 0.24 kPa.
With O [water] the refractive index [1] was 1.3333 ± 0.002, the “vapor or sublimation pressure” value ([2]; 303.15 K) was 4.27 ± 0.22 kPa and the “vapor or sublimation pressure” value ([2]; 313.15 K) was 7.44 ± 0.23 kPa and 7.34 ± 0.23 kPa. The “vapor or sublimation pressure” value ([2]; 323.15 K) was 12.38 ± 0.23 kPa.
For CCCO [propan-1-ol], the refractive index [1] was 1.3853 ± 0.002, the “vapor or sublimation pressure” value ([2]; 303.15 K) was 3.9 ± 0.22 kPa and the “vapor or sublimation pressure” value ([2]; 313.15 K) was 7.02 ± 0.23 kPa and 6.93 ± 0.23 kPa. The “vapor or sublimation pressure” value ([2]; 323.15 K) was 12.19 ± 0.23 kPa.
For CCC(C)O (stereo unspecified) [butan-2-ol], the refractive index [1] was 1.3976 ± 0.002, the “vapor or sublimation pressure” value ([2]; 303.15 K) was 3.27 ± 0.23 kPa and the “vapor or sublimation pressure” value ([2]; 329.15 K) was 14.83 ± 0.23 kPa and 14.37 ± 0.23 kPa. For the same molecule, the “vapor or sublimation pressure” value ([2]; 343.15 K) was 29.58 ± 0.26 kPa.
For CCCCCC [hexane], the refractive index [1] was 1.3725 ± 0.002, the “vapor or sublimation pressure” value ([2]; 303.15 K) was 25.09 ± 0.28 kPa and the “vapor or sublimation pressure” value ([2]; 323.15 K) was 54.3 ± 0.29 kPa. The “vapor or sublimation pressure” value ([2]; 329.15 K) was 66.87 ± 0.39 kPa and 67.73 ± 0.39 kPa and the “vapor or sublimation pressure” value ([2]; 343.15 K) was 105.38 ± 0.71 kPa.
